Patent EP1214397B1, “METHOD FOR THE SELECTIVE PROTECTION OF PROLIFERATING NORMAL CELLS AND THE SELECTIVE ERADICATION OF TUMOR CELLS HAVING AN INACTIVE P53 PATHWAY” (UNIVERSITA' DEGLI STUDI DI ROMA "LA SAPIENZA", priority 1999, dated 2001)
Several values for one entry are separate records, joined by “and”; a condition that tells them apart may be missing. Identical values can stand only once.

Legend:
C3H10T1/2v-src/v-myc [1] = assay: Focus-forming assay, culture of tumor cells alone (Examples 3, 9); type: cell-based, mouse; conditions: C3H10T1/2 v-src/v-myc alone, 5×10^2 cells per plate, percentage of treated with respect to untreated (=100), 400 nM CD T0-T84, class B drug T24-T72 (40 µM 3FT, 80 µM 2ClAd, 40µM Ara C)
L cells = assay: Colony formation assay, monoculture (Example 4); type: cell-based; conditions: 5×10^2 cells, 400 nM CD T0-T84, 40 µM 3FT T24-T72
Source text: In order to quantify the effects of the combined CD/3FT use of the above example 3, the first, second and third assay series described in example 4 has been carried out on monocultures at a cell density allowing countable colonies.
The culture conditions, compounds concentrations, and treatments are the same described in example 3, with the exception of the cell system used have been for the first assay series a monoculture of C3H 10T1/2 cells at the clonal densities of 1×10^3, 5×10^3 and 1×10^4, for the second assay series a monoculture of C3H 10T1/2v-src/v-myc cells at the clonal densities of 5×10^2, 1×10^3 and 5×10^3, and for the third assay series a monoculture of L cells at the clonal densities of 5×10^2, 1×10^3 and 5×10^3.

[2] = tested on: human lung fibroblasts transformed with E7 (HF E7); assay: Nuclei number state after cytochalasin D (Example 2); type: cell-based; conditions: 400 nM CD for 72 h
Method: (§1) Each cell culture was plated on 35mm plates at a 1×10^4cells/plate density, under the following conditions considered herein as standard conditions. Cells were grown on a plastic substrate (Falcon-BD), in a culture medium made of Dulbecco's modified Eagle's Medium supplemented with 2mM L-glutamine, antibiotics, 10% fetal bovine serum, at 37°C with 5% CO2 and 90% humidity. The following assays have been therefore carried out.
(§2) In an initial time of 12 hours c.ca (step common also to the other assays herein reported) cells were allowed to grow up, but within a density allowing their proliferation, thus ensuring the utmost reliability of the assay result, that otherwise could be altered by cells arrested for reasons other than compound administration. After this first step the following administrations have been carried out.
E6 is in fact an oncogene, the product thereof being capable of sequestering and inhibiting the p53 function, whereas E7 is another oncogene, the product thereof being capable of sequestering the Rb function. This assay series accordingly allows in fact to extend also to human cells the growth arrest, at the binucleate stage, by CD, as due to an active p53 pathway in normal cells, and at the same time it confirms the non-implication of Rb therein.
After the initial time of 12 h c.ca (see above) the following assays have been in particular carried out.
In a third assay series 400 nM CD for 72 h (T0-T72) and 0.11% DMSO for 72 h (T0-T72) as a control thereof, have been administered to human lung fibroblasts transformed with E7 (HF E7).

[3] = tested on: mouse embryofibroblast (MEF) cells knock out for Rb; assay: Nuclei number state after cytochalasin D in knock-out cells (Example 1); type: cell-based; conditions: 400 nM CD for 72 h
Source text: (§3) In order to verify which molecular factors cause multinucleation in tumor cells and thereby identify tumor cells and tumor forms where binucleation/multinucleation differential status is applicable to, an assay series directed to verify such forms to be ascribable to the loss of one or more genes regulating cell functions, has been carried out. Such assays have been in particular carried out on cells deriving from mice knock-out for the sole Rb (retinoblastoma), p21 or p53 function.
as §1
as §2, with “After this first step the following administrations have been carried out.” left out
(§4) The administration was carried out on strictly proliferating cells. After treatment, cells were processed and analyzed.

[4] = tested on: mouse embryofibroblast (MEF) cells knock out for p21; assay: as above; type: cell-based; conditions: 400 nM CD for 72 h
Source text: as §3, §1
as §2, with “After this first step the following administrations have been carried out.” left out
as §4

C3H10T1/2v-src/v-myc [5] = assay: Inhibition of cytodieresis and DNA replication, nucleation state and BrdU uptake (Examples 5, 7); type: cell-based, mouse
Method: (§5) Each cell culture was plated on 35mm plates at a 1×10^4cells/plate density, under the standard conditions described in example 1.
(§6) In a control assay series thereof the sole BrdU and 0.11% DMSO, have been administered to C3H10T1/2 and in C3H10T1/2/v-src-/myc cells respectively, for 24h (T0-T24) as a control of the proliferation phase.
(§7) In each of the above assays CD and BrdU concentrations are the same, namely 400 nM and […] respectively. The administration was carried out on strictly proliferating cells. The contemporaneous measurement of BrdU uptake and %S has ensured the highest stringency of results on DNA replication. Percentage of mononucleate, binucleate, tri/tetranucleate and with >4 nuclei resulting cells has been also measured. After treatment, cells have been processed and analyzed as reported in reference 18.
(§8) In particular the first assay series of example 5 has been carried out with 650 nM Latrunculin B, 700 nM Jasplakinolide, and 100 nM condramide B instead of CD. The second assay series of example 5 has been carried out with 16 µM 13,14,21,22-tetrahydrocytochalasin B, 2 µM 21,22-dihydrocytochalasin B, 1 µM deoxyphomin, 4 µM Cytochalasin F (CF) 8 µM Cytochalasin V (CV) , and 0,5 µM CD as a control on MEF cells.

C3H10T1/2 = assay: as above; type: cell-based, mouse
Method: as §5, §6, §7, §8

dermal fibroblasts (MDF) = assay: Nuclei number state after cytochalasin D, wild-type control cells (Example 1); type: cell-based, mouse; conditions: CD for 72 h
Source text: as §3, §1
as §2, with “After this first step the following administrations have been carried out.” left out
as §4

MEF = assay: as above; type: cell-based, mouse; conditions: CD for 72 h
Source text: as §3, §1
as §2, with “After this first step the following administrations have been carried out.” left out
as §4

C3H 10T1/2(v-src/v-myc) = assay: Colony forming assay, interference with 3FT toxic effects on tumor cells (Example 6); type: cell-based, mouse; conditions: 5×10^2 cell/60mm; 400 nM CD or 3 µM CB T0-T84; 30 µM 3FT T24-T72; untreated 111
Method: In order to verify any possible interference between CD and 3FT actions on tumor cells, a series of colony forming assays has been carried out on C3H 10T1/2(v-src/v-myc).
The cells have been therefore plated on 60mm plates at a 5×10^2 cell/60mm density, at the culture conditions described in example 3, and the initial time of 12 hours have been subjected to the following treatments.
After the above administrations, cells were treated as described in example 3.

normal cells = assay: Dose/response: concentration arresting normal cells in the intermitotic phase (CAP); type: cell-based; conditions: standard conditions
Method: It generally results in cell cycle arrest at the binucleate stage in at least 40% of class A compounds treated proliferating normal cells, using the minimal drug concentration (i.e. sufficient to reversible induce its effects, on target cells, without causing significant damage, experimentally defined by dose/response curves), giving the above result without significant toxicity and an incubation time generally ranging from 12 to 48 hours depending on cell type.
As to the CAP parameter, the corresponding value is a class A compound concentration causing the arrest of at least the 40% of normal cells in the intermitotic stage; such concentration is experimental deduced by dose/response experiments that define the appropriate value range for different cell types and compounds.
For the above class A compounds, under standard conditions this value ranges within 1 nM to 40 µM concentrations.. […]
In the light of these tests, the CAP and CACT values to be assigned to several class A compounds as the concentration range yielding the cytodieresis arrest, and, within said concentration range, the value of the minimum concentration required for attaining this effect, forming the preferred embodiment, has been determined. […]

## C=C1[C@@H](C)[C@H]2[C@H](Cc3ccccc3)NC(=O)[C@]23[C@H](OC(C)=O)/C=C/[C@@](C)(O)C(=O)[C@@H](C)C/C=C/[C@H]3[C@@H]1O [cytochalasin D]
C3H10T1/2v-src/v-myc [1]
  number of transformation foci: slight decrease
C3H10T1/2v-src/v-myc [1]; listed as CD
  number of transformation foci: 24 and 28
L cells
  number of colonies: 55
[2]; >4 nuclei cells
  %>4N: 1%
[2]; binucleate cells
  % 2N: 42%
[2]; mononucleate cells
  %1N: 54%
[2]; tri-tetranucleate cells
  %3-4N: 3%
[3]
  nuclei number state: arrest into a binucleate stage
[4]
  nuclei number state: arrest into a binucleate stage
C3H10T1/2v-src/v-myc [5]; C3H10T1/2v-src/v-myc, drug T0-T48, concentration printed with the drug (CD 400 nM)
  % 2N: 35%
C3H10T1/2v-src/v-myc [5]; transformed cells, 400 nM CD T0-T48, BrdU T24-48
  percentage of cells entering in S phase (%S): 88%
C3H10T1/2v-src/v-myc [5]; tumor cells, 400 nM CD T0-T48
  three-tetranucleate or even with >4 nuclei cells: 47%
C3H10T1/2; C3H10T1/2, drug T0-T48, concentration printed with the drug (CD 400 nM)
  % 2N: 67%
C3H10T1/2; CD T0 to T48, rest T48 to T72, BrdU T72 to T96, control 97%
  plated cells still capable of uptaking the BrdU (reversibility): 96%
C3H10T1/2; CD T0 to T48, rest T48 to T72, BrdU T72 to T96, control 98%
  mononucleate cells after drug removal (reversibility): 92%
C3H10T1/2; normal cells, 400 nM CD T0-T48
  three-tetranucleate or even with >4 nuclei cells: 6%
C3H10T1/2; normal cells, 400 nM CD T0-T48, BrdU T24-48
  percentage of cells entering in S phase (%S): 23%
Dermal fibroblasts (MDF)
  nuclei number state: arrest into a binucleate stage
MEF
  nuclei number state: arrest into a binucleate stage
C3H 10T1/2(v-src/v-myc)
  Colonies: 46
Normal cells
  CAP, minimum functional concentration for arrest in intermitotic phase of normal cells: 400 nM
